Reference: patent USRE32333E, “A-21978 Antibiotics and process for their production” (priority 1985, dated 1987)
In brackets after ≈: the same amount, converted by molar mass. Several values for one entry are separate records, joined by “and”; a condition that tells them apart may be missing. Equal entries are not always repeated. Where two headings read alike, the source gives them in different places.

How the values were obtained:
[1] = system: Staphylococcus aureus 3055; assay: MIC, standard agar-dilution test (Table XI); type: cell-based; details: aerobic, S. aureus 3055, sodium salt form
[2] = system: Group D Streptococcus 282; assay: MIC, standard agar-dilution test (Table XI); type: cell-based; details: aerobic, sodium salt form
[3] = system: Streptococcus pyogenes C203; assay: MIC, standard agar-dilution test (Table XI); type: cell-based; details: aerobic, S. pyogenes C203, sodium salt form
[4] = system: Streptococcus pneumoniae Park I; assay: MIC, standard agar-dilution test (Table XI); type: cell-based; details: aerobic, S. pneumoniae Park I, sodium salt form
[5] = system: Viridans Streptococcus 9943; assay: MIC, standard agar-dilution test (Table XI); type: cell-based; details: aerobic, sodium salt form
[6] = system: Neisseria gonorrhoeae 111076-4; assay: MIC, standard agar-dilution test (Table XI); type: cell-based; details: aerobic, N. gonorrhoeae 111076-4, sodium salt form
[7] = system: Staphylococcus aureus 3055; assay: MIC, standard broth-dilution test (Table XII); type: cell-based; details: aerobic, S. aureus 3055
[8] = system: Group D Streptococcus 282; assay: MIC, standard broth-dilution test (Table XII); type: cell-based; details: aerobic
[9] = system: Streptococcus pyogenes C203; assay: MIC, standard broth-dilution test (Table XII); type: cell-based; details: aerobic, S. pyogenes C203
[10] = system: Streptococcus pneumoniae Park I; assay: MIC, standard broth-dilution test (Table XII); type: cell-based; details: aerobic, S. pneumoniae Park I
[11] = system: Viridans Streptococcus 9943; assay: MIC, standard broth-dilution test (Table XII); type: cell-based; details: aerobic
[12] = system: Staphylococcus aureus; assay: MIC against clinical isolates, ICS agar-dilution (Table XIII); type: cell-based; details: 10 clinical isolates, bracket = number of isolates with this MIC or range
[13] = system: Viridans Streptococcus; assay: as above; type: cell-based; details: 2 clinical isolates, bracket = number of isolates with this MIC or range
[14] = system: Actinomyces israelii; assay: MIC against anaerobic bacteria, standard agar-dilution (Table XIV); type: cell-based; details: anaerobe
[15] = system: Clostridium septicum; assay: as above; type: cell-based; details: anaerobe
[16] = system: Eubacterium aerofaciens; assay: as above; type: cell-based; details: anaerobe
[17] = system: Peptococcus asaccharolyticus; assay: as above; type: cell-based; details: anaerobe
[18] = system: Peptococcus prevoti; assay: as above; type: cell-based; details: anaerobe
[19] = system: Peptostreptococcus anaerobius; assay: as above; type: cell-based; details: anaerobe
[20] = system: Peptostreptococcus intermedius; assay: as above; type: cell-based; details: anaerobe
[21] = system: Propionibacterium acnes; assay: as above; type: cell-based; details: anaerobe
[22] = system: Bacteroides fragilis; assay: as above; type: cell-based; details: anaerobe
[23] = system: Fusobacterium symbiosum; assay: as above; type: cell-based; details: anaerobe
[24] = system: Fusobacterium necrophorum; assay: as above; type: cell-based; details: anaerobe
[25] = system: Staphylococcus aureus; assay: MIC, agar dilution (Table XV); type: cell-based
Text: (§1) ^1 MIC = minimum inhibitory concentration (μg/ml), agar dilution

[26] = system: Streptococcus pneumoniae; assay: MIC, agar dilution (Table XV); type: cell-based
Text: as §1

[27] = system: Streptococcus pyogenes; assay: MIC, agar dilution (Table XV); type: cell-based
Text: as §1

[28] = system: Staphylococcus aureus; assay: Experimental bacterial infection in mice, ED50; type: in vivo; details: S. aureus infection, two doses, subcutaneous administration
Description: (§2) When two doses of test compound were administered to mice in illustrative infections, the activity observed as measured as an ED50 value [effective dose in mg/kg to protect fifty percent of the test animals: See Warren Wick, et al., J. Bacteriol, 81, 233-235 (1961)].

[29] = system: Streptococcus pneumoniae; assay: Experimental bacterial infection in mice, ED50; type: in vivo; details: S. pneumoniae infection, two doses, subcutaneous administration
Description: as §2

[30] = system: Streptococcus pyogenes; assay: Experimental bacterial infection in mice, ED50; type: in vivo; details: S. pyogenes infection, two doses
Description: as §2

[31] = system: Streptococcus faecalis (Guze); assay: In vitro susceptibility (MIC) of the S. faecalis Guze strain; type: cell-based
Text: ^1 In vitro susceptibility of the S. faecalis Guze strain

[32] = Electrometric titration in 66% aqueous dimethylformamide; type: physicochemical; details: 66% DMF, Na salt forms; factors: two determinations
[33] = system: Clostridium perfringens; details: anaerobe, agar-dilution
[34] = Mouse
[35] = Rat, IV
[36] = system: Micrococcus luteus; assay: Paper-disc agar-diffusion bioassay; details: individual factors, Na salts
[37] = system: Streptococcus faecalis (Guze); assay: Streptococcus faecalis descending rat pyelonephritis test; details: 1.0 mg/kg x 7 subcutaneous; for Percent of Rats Cured: cure = kidney counts less than 10^2 per g; for Percent of Rats with a 4-Log Titer Decrease: once daily, kidney titer vs infected controls
[38] = system: Staphylococcus epidermidis; assay: MIC against clinical isolates, ICS agar-dilution (Table XIII); type: cell-based; details: 12 clinical isolates, bracket = number of isolates with this MIC or range

CCC(C)CCCCCCCCC(=O)NC(Cc1c[nH]c2ccccc12)C(=O)NC(CC(N)=O)C(=O)NC(CC(=O)O)C(=O)NC1C(=O)NCC(=O)NC(CCCN)C(=O)NC(CC(=O)O)C(=O)NC(C)C(=O)NC(CC(=O)O)C(=O)NCC(=O)NC(CO)C(=O)NC(C(C)CC(=O)O)C(=O)NC(CC(=O)c2ccccc2N)C(=O)OC1C (stereo not drawn) [Factor C3]
MIC [1]: 0.06 mg/L
MIC [2]: 0.13 mg/L
MIC [3]: 0.25 mg/L
MIC [4]: 0.13 mg/L
MIC [5]: 0.5 mg/L
MIC [6]: 4.0 mg/L
MIC [7]: 0.13 mg/L (≈ 0.0782 µM)
MIC [8]: 0.13 mg/L (≈ 0.0782 µM)
MIC [9]: 0.13 mg/L (≈ 0.0782 µM)
MIC [10]: .5 mg/L (≈ 0.301 µM)
MIC [11]: 32.0 mg/L (≈ 19.2 µM)
Minimum Inhibitory Concentration [12]: 0.06 to 0.12 µg/mL
Minimum Inhibitory Concentration [13]: 0.5 µg/mL
MIC [14]: 1.0 mg/L (≈ 0.601 µM)
MIC [15]: 1.0 mg/L (≈ 0.601 µM)
MIC [16]: 4 mg/L (≈ 2.41 µM)
MIC [17]: 1.0 mg/L (≈ 0.601 µM)
MIC [18]: < 0.5 mg/L
MIC [19]: 1.0 mg/L (≈ 0.601 µM)
MIC [20]: < 0.5 mg/L
MIC [21]: 1.0 mg/L (≈ 0.601 µM)
MIC [22]: > 128 mg/L
MIC [23]: 16 mg/L (≈ 9.62 µM)
MIC [24]: 32 mg/L (≈ 19.2 µM)
MIC [25]: 0.06 mg/L (≈ 0.0361 µM)
MIC [26]: 0.03 mg/L (≈ 0.018 µM)
MIC [27]: 0.06 mg/L (≈ 0.0361 µM)
ED50 [28]: 0.08 mg/kg
ED50 [29]: 0.09 mg/kg
ED50 ([30]; oral administration): 66 mg/kg
ED50 ([30]; subcutaneous administration): 0.032 mg/kg
MIC [31]: 0.13 mg/L (≈ 0.0782 µM)
pKa Values (first group) [32]: 5.73 and 5.75
pKa Values (second group) [32]: 7.54 and 7.58
MIC [33]: 8 mg/L (≈ 4.81 µM)
LD50 ([34]; IV): < 50 mg/kg
LD50 ([34]; SC): 70 to 75 mg/kg
LD50 [35]: < 160 mg/kg
Bioassay (Micrococcus luteus) [36]: 803 units/mg
Percent of Rats Cured [37]: 78
Percent of Rats with a 4-Log Titer Decrease [37]: 78

CCC(C)CCCCCCC(=O)N[C@@H](Cc1c[nH]c2ccccc12)C(=O)NC(CC(N)=O)C(=O)N[C@@H](CC(=O)O)C(=O)N[C@@H]1C(=O)NCC(=O)N[C@@H](CCCN)C(=O)N[C@@H](CC(=O)O)C(=O)N[C@H](C)C(=O)N[C@@H](CC(=O)O)C(=O)NCC(=O)N[C@H](CO)C(=O)N[C@@H]([C@H](C)CC(=O)O)C(=O)N[C@@H](CC(=O)c2ccccc2N)C(=O)O[C@@H]1C (stereo in doubt) [Factor C1]
MIC [1]: 0.5 mg/L
MIC [2]: 1.0 mg/L
MIC [3]: 0.13 mg/L
MIC [4]: 0.13 mg/L
MIC [5]: 0.5 mg/L
MIC [6]: 16.0 mg/L
MIC [7]: 1.0 mg/L (≈ 0.612 µM)
MIC [8]: 2.0 mg/L (≈ 1.22 µM)
MIC [9]: 0.5 mg/L (≈ 0.306 µM)
MIC [10]: 2.0 mg/L (≈ 1.22 µM)
MIC [11]: 32.0 mg/L (≈ 19.6 µM)
Minimum Inhibitory Concentration [12]: 0.5 µg/mL
Minimum Inhibitory Concentration [38]: 0.13 to 0.25 µg/mL
MIC [14]: 4 mg/L (≈ 2.45 µM)
MIC [15]: 4 mg/L (≈ 2.45 µM)
MIC [16]: 16 mg/L (≈ 9.79 µM)
MIC [17]: 4 mg/L (≈ 2.45 µM)
MIC [18]: 2 mg/L (≈ 1.22 µM)
MIC [19]: 2 mg/L (≈ 1.22 µM)
MIC [20]: 4 mg/L (≈ 2.45 µM)
MIC [21]: 8 mg/L (≈ 4.89 µM)
MIC [22]: > 128 mg/L
MIC [23]: > 128 mg/L
MIC [24]: 64 mg/L (≈ 39.2 µM)
MIC [25]: 0.5 mg/L (≈ 0.306 µM)
MIC [26]: 0.13 mg/L (≈ 0.0795 µM)
MIC [27]: 0.13 mg/L (≈ 0.0795 µM)
ED50 [28]: 0.22 mg/kg
ED50 [29]: 0.3 mg/kg
ED50 ([30]; oral administration): 93 mg/kg
ED50 ([30]; subcutaneous administration): 0.064 mg/kg
MIC [31]: 1.0 mg/L (≈ 0.612 µM)
pKa Values (first group) [32]: 5.7 and 5.9
MIC [33]: 16 mg/L (≈ 9.79 µM)
LD50 ([34]; IV): > 250 mg/kg
LD50 ([34]; SC): > 365 mg/kg
LD50 [35]: 479 ± 32 mg/kg
Bioassay (Micrococcus luteus) [36]: 1663 units/mg
Percent of Rats Cured [37]: 50
Percent of Rats with a 4-Log Titer Decrease [37]: 50
